Assay results taken from the CheMixHub viscosity set.
Several values for one entry are separate records, joined by “and”; a condition that tells them apart may be missing. Equal values may be shown once. ± gives the uncertainty stated by the source.

Assay: xn = mol fraction of the nth substance listed

C1CCOC1 + CC#N
viscosity [mPa·s], 101 kPa
Conditions | x2 = 0.1633 | x2 = 0.3052 | x2 = 0.4295 | x2 = 0.5394 | x2 = 0.6372 | x2 = 0.7249 | x2 = 0.8039 | x2 = 0.8754 | x2 = 0.9405
298.15 K | 0.4419 ± 0.011 | 0.4236 ± 0.011 | 0.4075 ± 0.011 | 0.3932 ± 0.01 | 0.3808 ± 0.0099 | 0.3701 ± 0.0097 | 0.3611 ± 0.0094 | 0.3539 ± 0.0092 | 0.3481 ± 0.0091
308.15 K | 0.4066 ± 0.011 | 0.3875 ± 0.01 | 0.3701 ± 0.0097 | 0.355 ± 0.0093 | 0.3425 ± 0.009 | 0.3321 ± 0.0087 | 0.3242 ± 0.0085 | 0.3184 ± 0.0083 | 0.3145 ± 0.0082
318.15 K | 0.3683 ± 0.0096 | 0.3497 ± 0.0091 | 0.334 ± 0.0087 | 0.3202 ± 0.0084 | 0.3089 ± 0.0081 | 0.3001 ± 0.0079 | 0.2938 ± 0.0077 | 0.2901 ± 0.0076 | 0.2879 ± 0.0076

c1ccc2ccccc2c1 + CC(=O)O
viscosity
Conditions | 303.15 K | 308.15 K | 313.15 K | 318.15 K | 323.15 K
101 kPa, x1 = 0.06774 | 1.187 ± 0.03 mPa·s | 1.093 ± 0.028 mPa·s | 1.01 ± 0.025 mPa·s | 0.9386 ± 0.024 mPa·s | 0.8751 ± 0.022 mPa·s
101 kPa, x1 = 0.116 | – | 1.108 ± 0.028 mPa·s | 1.024 ± 0.026 mPa·s | 0.951 ± 0.024 mPa·s | 0.8838 ± 0.022 mPa·s
101.33 kPa, x1 = 0.06774 | 1.187 ± 0.0083 mPa·s | 1.093 ± 0.0077 mPa·s | 1.01 ± 0.0071 mPa·s and 1.01 ± 0.027 mPa·s | 0.9386 ± 0.0066 mPa·s | 0.8751 ± 0.0061 mPa·s
101.33 kPa, x1 = 0.08923 | – | – | 1.023 ± 0.027 mPa·s | – | –
101.33 kPa, x1 = 0.116 | – | – | 1.024 ± 0.027 mPa·s | – | –
101.33 kPa, x1 = 0.12 | – | 1.108 ± 0.0078 mPa·s | 1.024 ± 0.0072 mPa·s | 0.951 ± 0.0067 mPa·s | 0.8838 ± 0.0062 mPa·s
101.33 kPa, x1 = 0.1443 | – | – | 1.049 ± 0.028 mPa·s | – | –

c1ccc2ccccc2c1 + Nc1ccccc1
viscosity [mPa·s]
Conditions | 308.15 K | 313.15 K | 318.15 K | 323.15 K
101 kPa, x1 = 0.2092 | 2.365 ± 0.06 | 2.092 ± 0.053 | 1.868 ± 0.047 | 1.687 ± 0.043
101 kPa, x1 = 0.3036 | 2.224 ± 0.056 | 1.988 ± 0.051 | 1.783 ± 0.045 | 1.616 ± 0.041
101.33 kPa, x1 = 0.209 | 2.365 ± 0.017 | 2.092 ± 0.015 | 1.868 ± 0.013 | 1.687 ± 0.012
101.33 kPa, x1 = 0.2092 | 2.365 ± 0.062 | – | – | –
101.33 kPa, x1 = 0.2497 | 2.291 ± 0.06 | – | – | –
101.33 kPa, x1 = 0.3 | 2.224 ± 0.016 | 1.988 ± 0.014 | 1.783 ± 0.012 | 1.616 ± 0.011
101.33 kPa, x1 = 0.3036 | 2.224 ± 0.058 | – | – | –
